Measurements: patent EP4725956A1, “MODIFIED POLYPEPTIDE AND USE THEREOF IN FIELD OF ANALGESIA” (Nanjing Anji Biotechnology Co., Ltd., priority 2023, dated 2024)
Positions of bridges follow the written chain, without caps; N, C: chain ends. Non-standard residues stand in square brackets, D forms with d. Residues, ends and D or L forms follow the SMILES beside them. Hyp = O=C(O)[C@@H]1C[C@@H](O)CN1; Nle = CCCC[C@H](N)C(=O)O; Orn = NCCC[C@H](N)C(=O)O

Tests used:
rat CCI model = assay: Rat CCI (chronic constriction injury) model (Example 9); assay type: in vivo; settings: 1 mg/kg s.c. (AJ003; AJ003-36 medium dose)
Excerpt: Neuropathic pain has many types, and animal models can simulate clinical neuropathic pain. Common SD rat sciatic nerve neuropathic pain models include CCI (Chronic Constriction Injury), SNI (Spared Nerve Injury), SNL (Spinal Nerve Ligation), and CCD (using stainless steel wire through the intervertebral foramen to fix and compress the dorsal root ganglion). Among them, the CCI model is widely used to study neuropathic pain, providing a basis for further research on mechanisms and strategies for nerve injury repair (Wen Xiaojun, Medical Information, Jan. 2018, Vol. 31, No.1). In this example, the CCI model was employed.
Except for the control group, the remaining SD rats were anesthetized via intraperitoneal injection of 10% chloral hydrate saline solution at a dose of 0.3 mL per 100 g body weight, and surgical modeling was performed. The right hind limb skin was carefully incised, muscles were separated, and the sciatic nerve was ligated three times using 4-0 surgical silk, spaced 1 mm apart. Muscles and skin were sutured, and antibiotics were applied to the wound to prevent infection. […] Approximately 10 days post-surgery, plantar pain thresholds were measured three times for each rat, and the average value was calculated. Rats were randomly assigned to groups based on pain thresholds. Drug administration was performed according to Table 8, and plantar pain thresholds were measured at 2 h, 4 h, 6 h, and 8 h after administration.

[1] = test system: mouse oxaliplatin-induced acute chemotherapy pain model; assay: Mouse oxaliplatin chemotherapy pain model, different doses (Example 7); assay type: in vivo; settings: 2 mg/kg s.c. (AJ003; AJ003-36 medium dose)
Procedure: Oxaliplatin was dissolved in 5% glucose solution to a concentration of 1 mg/mL. For model induction, each male C57 mouse (Hangzhou Ziyuan Experimental Animal Technology Co., Ltd.) received a single intraperitoneal injection of oxaliplatin at 10 mg/kg. Mice in the negative control or blank control group received 5% glucose solution. Approximately one week after model induction, mechanical pain thresholds of the mice were measured three times per mouse, and the average value was calculated. Mice were then randomly assigned to groups based on their pain thresholds. Drug administration was carried out according to the dosing schedule shown in Table 6, with a single dose per mouse. Mechanical pain thresholds were measured at 0.5, 1, 2, 4, 6, and 8 h post-dose. […] Table 6 Dosing Scheme for Oxaliplatin Chemotherapy Pain Model

[2] = In vitro plasma stability and predicted half-life (HPLC main peak area, Example 3); assay type: in vitro ADME; settings: human plasma (EDTA anticoagulant), 37°C, sampled up to 24 h, predicted half-life calculated with Winolin
Procedure: The modified peptides in this study were designed with non-natural amino acid substitutions at certain non-essential positions to enhance peptide stability and improve druggability. Peptides were dissolved in deionized water to 2 mg/mL, then diluted with acetonitrile to 1 mg/mL and filtered through an organic membrane. 200 µL of the filtrate was transferred to an LC vial as the peptide control. 300 µL of human plasma (comprising EDTA as anticoagulant, Nanjing Senbeijia Biotechnology Co., Ltd., Lot No. SBJ-P-HU011-100 mL) was mixed with 300 µL acetonitrile, centrifuged at 4°C and 12,000 rpm for 5 minutes. The supernatant was filtered through an organic membrane, and 200 µL of the filtrate was transferred to an LC vial as the plasma blank control. For peptide samples, 10 mg of peptide was weighed mixed with 5 mL of human plasma and vortexed thoroughly. 300 µL of peptide-containing plasma was mixed with 300 µL acetonitrile, centrifuged at 4°C and 12,000 rpm for 5 minutes, and the supernatant was filtered through an organic membrane. 200 µL of the filtrate was transferred to an LC vial as the 0 min sample. Peptide-containing plasma was incubated in a 37°C water bath, and samples at other time points were collected using the same procedure as the 0 min sample. For peptides AJ003 and AJ003-1, the sampling time points were 0 min, 5 min, 10 min, 20 min, 30 min, 1 h, 2 h, 4 h, 6 h, 10 h, 12 h, and 24 h. For modified peptides AJ003-34, AJ003-35, AJ003-36, AJ003-37, AJ003-38, AJ003-39, AJ003-40, AJ003-41, and AJ003-42, the time points were 0 min, 10 min, 30 min, 1 h, 4 h, 6 h, 10 h, 12 h, and 24 h. All peptide sample series were analyzed by HPLC, recording the changes in main peak areas over plasma incubation time. Predicted in vitro half-lives were calculated using the pharmacokinetic software Winolin. Due to the presence of tautomers, AJ003 peak areas were difficult to integrate accurately over time. AJ003-1 is an analog of AJ003 in which the threonine at position 5 is substituted with D-threonine; its sequence differs from AJ003 by only one amino acid configuration. […] The in vitro plasma half-lives of modified peptides AJ003-34, AJ003-35, AJ003-36, AJ003-37, AJ003-38, AJ003-39, AJ003-40, AJ003-41, and AJ003-42 were 61.9 h, 45.3 h, 65.3 h, 71.0 h, 26.7 h, 43.0 h, 84.0 h, 30.0 h, and 61.4 h, respectively.

SMILES | analgesic activity compared with the model group (mechanical pain threshold) (rat CCI model; Day 1 of dosing, 2 h and 4 h) | analgesic activity compared with the model group (mechanical pain threshold) (rat CCI model; Day 1 of dosing, 6 h) | analgesic activity compared with the model group (mechanical pain threshold) (rat CCI model; Day 1 of dosing, 8 h) | analgesic activity compared with the model group (mechanical pain threshold) (rat CCI model; Day 4 of dosing, 2 h and 4 h) | analgesic activity compared with the model group (mechanical pain threshold) (rat CCI model; Day 4 of dosing, 6 h and 8 h) | analgesic activity compared with the model group (mechanical pain threshold) (rat CCI model; Day 7 of dosing, 2 h and 4 h) | analgesic activity compared with the model group (mechanical pain threshold) (rat CCI model; Day 7 of dosing, 6 h) | analgesic activity compared with the model group (mechanical pain threshold) (rat CCI model; Day 7 of dosing, 8 h) | analgesic activity compared with the model group (mechanical pain threshold) (rat CCI model; Day 10 of dosing, 2 h and 4 h) | analgesic activity compared with the model group (mechanical pain threshold) (rat CCI model; Day 10 of dosing, 6 h) | analgesic activity compared with the model group (mechanical pain threshold) (rat CCI model; Day 10 of dosing, 8 h) | analgesic activity compared with the model group (mechanical pain threshold) (rat CCI model; Day 14 of dosing, 2 h and 4 h) | analgesic activity compared with the model group (mechanical pain threshold) (rat CCI model; Day 14 of dosing, 6 h) | analgesic activity compared with the model group (mechanical pain threshold) (rat CCI model; Day 14 of dosing, 8 h) | analgesic activity compared with the model group (mechanical pain threshold) ([1]; single dose, 0.5, 1, 2 and 4 h post-dose) | analgesic activity compared with the model group (mechanical pain threshold) ([1]; single dose, 6 h post-dose) | analgesic activity compared with the model group (mechanical pain threshold) ([1]; single dose, 8 h post-dose) | half-life at 2 mg/mL [2] [h]
CC(C)C[C@H](NC(=O)[C@@H](NC(=O)[C@H]1CSSC[C@H](NC(=O)[C@H](CO)NC(=O)CN)C(=O)N[C@@H](CO)C(=O)N[C@@H]([C@@H](C)O)C(=O)N2CCC[C@H]2C(=O)N2CCC[C@H]2C(=O)N[C@@H](CO)C(=O)N1)C(C)C)C(=O)N[C@@H](Cc1ccc(O)cc1)C(=O)N[C@@H](CO)C(=O)O [AJ003, GSCSTPPS-(D-Cys)-VLYS (disulfide bond between positions 3 and 9)] (H-GSCSTPPS[dC]VLYS-OH; disulfide 3-9) | significant analgesic activity | no significant difference | not significantly different | significant analgesic activity | no longer significant | significant analgesic activity | no significant effect | not significant | significant analgesic activity | no significant effect | not significant | significant analgesic activity | no significant effect | not significant | significant analgesic activity | no significant effect | no significant effect | 
CCCC[C@H](NC(=O)[C@@H](NC(=O)[C@H]1CSSC[C@H](NC(=O)[C@H](CO)NC(=O)CN)C(=O)N[C@@H](CO)C(=O)N[C@H]([C@H](C)O)C(=O)N2C[C@H](O)C[C@H]2C(=O)N2C[C@H](O)C[C@H]2C(=O)N[C@@H](CO)C(=O)N1)C(C)C)C(=O)N[C@@H](Cc1c[nH]c2ccccc12)C(=O)N[C@@H](CCCN)C(N)=O [AJ003-40, GSCS-(D-Thr)-Hyp-Hyp-S-(D-Cys)-V-Nle-W-Orn-NH2 (3,9 disulfide bond)] (H-GSCS[dT][Hyp][Hyp]S[dC]V[Nle]W[Orn]-NH2; disulfide 3-9) |  |  |  |  |  |  |  |  |  |  |  |  |  |  |  |  |  | 84
